Experiments:
[1] = DRUGMATRIX: Phorbol Ester radioligand binding (ligand: [3H] PDBu); assay type: cell membranes, Mus musculus, ICR, Brain, Membrane; settings: Not Active = under 50% inhibition at 10 µM
Cannabinoid receptor 1 = Cannabinoid receptor 1 (Homo sapiens, UniProt P21554); assay type: cell membranes, Chem-1, Membrane; settings: chem-1; note: in other assays of this panel Not Active means under 50% inhibition at 10 µM
[2] = biological target: T1, Cholecystokinin receptor type A (Homo sapiens, UniProt P32238); assay type: cell membranes, Membrane; settings: 1321-n1; note: in other assays of this panel Not Active means under 50% inhibition at 10 µM
T1 sequence (P32238 whole entry): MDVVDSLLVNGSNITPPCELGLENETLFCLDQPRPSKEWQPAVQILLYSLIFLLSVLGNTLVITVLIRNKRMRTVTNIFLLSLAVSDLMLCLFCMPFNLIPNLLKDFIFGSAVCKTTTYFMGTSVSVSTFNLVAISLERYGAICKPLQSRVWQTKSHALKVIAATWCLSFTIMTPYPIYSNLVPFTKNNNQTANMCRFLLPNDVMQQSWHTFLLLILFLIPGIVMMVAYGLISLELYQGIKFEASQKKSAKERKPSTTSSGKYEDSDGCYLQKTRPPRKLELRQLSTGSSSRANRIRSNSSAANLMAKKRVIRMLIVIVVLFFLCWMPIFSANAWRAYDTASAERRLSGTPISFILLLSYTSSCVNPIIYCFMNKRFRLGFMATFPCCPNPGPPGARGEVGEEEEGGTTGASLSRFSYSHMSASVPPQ

Cytochrome P450 2A6 = biological target: T2, Cytochrome P450 2A6 (Homo sapiens, UniProt P11509); settings: bti-tn-5b1-4; note: in other assays of this panel Not Active means under 50% inhibition at 10 µM
T2 sequence (P11509 whole entry): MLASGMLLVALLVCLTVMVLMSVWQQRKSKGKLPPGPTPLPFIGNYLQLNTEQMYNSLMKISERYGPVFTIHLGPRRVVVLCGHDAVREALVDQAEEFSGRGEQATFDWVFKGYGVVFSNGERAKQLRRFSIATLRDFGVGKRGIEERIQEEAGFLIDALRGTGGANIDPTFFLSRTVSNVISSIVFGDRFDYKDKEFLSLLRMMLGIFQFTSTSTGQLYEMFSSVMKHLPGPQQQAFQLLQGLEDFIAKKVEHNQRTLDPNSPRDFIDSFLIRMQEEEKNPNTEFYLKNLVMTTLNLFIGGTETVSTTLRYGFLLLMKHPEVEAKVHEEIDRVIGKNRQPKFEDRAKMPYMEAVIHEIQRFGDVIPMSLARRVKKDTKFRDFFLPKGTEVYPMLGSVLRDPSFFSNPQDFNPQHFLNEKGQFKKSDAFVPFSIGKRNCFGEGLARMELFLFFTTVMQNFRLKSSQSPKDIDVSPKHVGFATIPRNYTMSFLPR

Caspase-1 = biological target: T3, Caspase-1 (Homo sapiens, UniProt P29466); set-up: species or system Escherichia coli;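 note: Caspase-1 enzyme inhibition assay with a peptide substrate; in other assays of this panel Not Active means under 50% inhibition at 10 µM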
T3 sequence (P29466 whole entry): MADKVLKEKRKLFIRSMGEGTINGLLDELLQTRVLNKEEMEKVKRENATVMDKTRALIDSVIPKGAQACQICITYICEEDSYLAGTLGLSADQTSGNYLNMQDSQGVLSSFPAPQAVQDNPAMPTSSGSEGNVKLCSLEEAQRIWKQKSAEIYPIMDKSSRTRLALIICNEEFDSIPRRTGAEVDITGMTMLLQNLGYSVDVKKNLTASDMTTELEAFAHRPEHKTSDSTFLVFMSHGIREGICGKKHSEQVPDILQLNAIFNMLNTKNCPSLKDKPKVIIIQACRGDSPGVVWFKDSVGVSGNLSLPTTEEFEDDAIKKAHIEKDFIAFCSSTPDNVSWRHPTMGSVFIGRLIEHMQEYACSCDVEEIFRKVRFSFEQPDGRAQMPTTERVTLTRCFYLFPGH

[3] = DRUGMATRIX: Phosphodiesterase PDE4 enzyme inhibition (substrate: [3H]cAMP + cAMP); settings: u-937; Not Active = under 50% inhibition at 10 µM
D(3) dopamine receptor = D(3) dopamine receptor (Homo sapiens, UniProt P35462); experiment: DRUGMATRIX: Dopamine D3 radioligand binding (ligand: [3H] Spiperone); assay type: cell membranes, CHO, Membrane; settings: cho
Chain of D(3) dopamine receptor (P35462 whole entry): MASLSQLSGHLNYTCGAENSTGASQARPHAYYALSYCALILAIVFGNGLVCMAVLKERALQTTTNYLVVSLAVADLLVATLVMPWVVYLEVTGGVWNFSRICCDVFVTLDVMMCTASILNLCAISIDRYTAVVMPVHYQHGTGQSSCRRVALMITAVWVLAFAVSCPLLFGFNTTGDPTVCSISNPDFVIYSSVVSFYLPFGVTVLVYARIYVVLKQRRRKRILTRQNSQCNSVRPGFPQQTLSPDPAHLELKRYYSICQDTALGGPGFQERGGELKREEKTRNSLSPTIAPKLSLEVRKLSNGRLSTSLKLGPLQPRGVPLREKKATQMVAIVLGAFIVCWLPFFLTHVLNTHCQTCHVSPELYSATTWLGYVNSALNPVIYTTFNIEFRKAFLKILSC

Chain of Cannabinoid receptor 1 (P21554 whole entry): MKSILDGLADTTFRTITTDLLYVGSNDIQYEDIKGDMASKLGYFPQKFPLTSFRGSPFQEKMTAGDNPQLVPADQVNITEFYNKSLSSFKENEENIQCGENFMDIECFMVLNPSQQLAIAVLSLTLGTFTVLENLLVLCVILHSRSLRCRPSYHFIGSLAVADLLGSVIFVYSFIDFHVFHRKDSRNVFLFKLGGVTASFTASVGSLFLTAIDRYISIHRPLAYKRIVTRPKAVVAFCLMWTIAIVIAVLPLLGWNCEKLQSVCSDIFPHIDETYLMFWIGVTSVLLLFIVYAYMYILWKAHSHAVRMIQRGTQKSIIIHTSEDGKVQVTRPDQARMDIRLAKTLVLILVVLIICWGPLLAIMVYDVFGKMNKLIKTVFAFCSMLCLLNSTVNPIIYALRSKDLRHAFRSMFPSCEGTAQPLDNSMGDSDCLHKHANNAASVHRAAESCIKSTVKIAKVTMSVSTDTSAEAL

CC(C)[C@H]1CC[C@H](C(=O)N[C@H](Cc2ccccc2)C(=O)O)CC1 [NATEGLINIDE]
Not Active: IC50 [1] | Ki [1] | IC50 (Cannabinoid receptor 1) | IC50 [2] | IC50 (Cytochrome P450 2A6) | Ki (Cytochrome P450 2A6) | IC50 (Caspase-1) | IC50 [3] | Ki [3] | IC50 (D(3) dopamine receptor)

CCN[C@@H]1C[C@H](N)[C@@H](O[C@H]2OC(CN)=CC[C@H]2N)[C@H](O)[C@H]1O[C@H]1OC[C@](C)(O)[C@H](NC)[C@H]1O [NETILMICIN]
Not Active: IC50 [1] | Ki [1] | IC50 (Cannabinoid receptor 1) | IC50 [2] | IC50 (Cytochrome P450 2A6) | Ki (Cytochrome P450 2A6) | IC50 (Caspase-1) | IC50 [3] | Ki [3] | IC50 (D(3) dopamine receptor)

COC(=O)C1=C(C)NC(C)=C(C(=O)OCC(C)C)C1c1ccccc1[N+](=O)[O-] (stereo not given) [NISOLDIPINE]
Not Active: IC50 [1] | Ki [1] | IC50 (Cannabinoid receptor 1) | IC50 [2] | IC50 (Cytochrome P450 2A6) | Ki (Cytochrome P450 2A6) | IC50 (Caspase-1) | IC50 [3] | Ki [3] | IC50 (D(3) dopamine receptor)

CCOC(=O)C1=C(C)NC(C)=C(C(=O)OC)C1c1cccc([N+](=O)[O-])c1 (stereo not given) [NITRENDIPINE]
Not Active: IC50 [1] | Ki [1] | IC50 (Cannabinoid receptor 1) | IC50 [2] | IC50 (Cytochrome P450 2A6) | Ki (Cytochrome P450 2A6) | IC50 (Caspase-1) | IC50 [3] | Ki [3] | IC50 (D(3) dopamine receptor)

C#C[C@]1(OC(C)=O)CC[C@H]2[C@@H]3CCC4=CC(=O)CC[C@@H]4[C@H]3CC[C@@]21C [NORETHINDRONE ACETATE]
Not Active: IC50 [1] | Ki [1] | IC50 (Cannabinoid receptor 1) | IC50 [2] | IC50 (Cytochrome P450 2A6) | Ki (Cytochrome P450 2A6) | IC50 (Caspase-1) | IC50 [3] | Ki [3] | IC50 (D(3) dopamine receptor)

COc1ccc2[nH]c([S+]([O-])Cc3ncc(C)c(OC)c3C)nc2c1 (stereo not given) [OMEPRAZOLE]
Not Active: IC50 [1] | Ki [1] | IC50 (Cannabinoid receptor 1) | IC50 [2] | IC50 (Cytochrome P450 2A6) | Ki (Cytochrome P450 2A6) | IC50 (Caspase-1) | IC50 [3] | Ki [3] | IC50 (D(3) dopamine receptor)

Cc1nccn1CC1CCc2c(c3ccccc3n2C)C1=O (stereo not given) [ONDANSETRON]
Not Active: IC50 [1] | Ki [1] | IC50 (Cannabinoid receptor 1) | IC50 [2] | IC50 (Cytochrome P450 2A6) | Ki (Cytochrome P450 2A6) | IC50 (Caspase-1) | IC50 [3] | Ki [3] | IC50 (D(3) dopamine receptor)

CCCCOc1ccc(OCCCN2CCOCC2)cc1 [PRAMOXINE]
Not Active: IC50 [1] | Ki [1] | IC50 (Cannabinoid receptor 1) | IC50 [2] | IC50 (Cytochrome P450 2A6) | Ki (Cytochrome P450 2A6) | IC50 (Caspase-1) | IC50 [3] | Ki [3] | IC50 (D(3) dopamine receptor)

O=C(C1CCCCC1)N1CC(=O)N2CCc3ccccc3C2C1 (stereo not given) [PRAZIQUANTEL]
Not Active: IC50 [1] | Ki [1] | IC50 (Cannabinoid receptor 1) | IC50 [2] | IC50 (Cytochrome P450 2A6) | Ki (Cytochrome P450 2A6) | IC50 (Caspase-1) | IC50 [3] | Ki [3] | IC50 (D(3) dopamine receptor)

CCN(CC)CCOC(=O)c1ccc(N)cc1 [PROCAINE]
Not Active: IC50 [1] | Ki [1] | IC50 (Cannabinoid receptor 1) | IC50 [2] | IC50 (Cytochrome P450 2A6) | Ki (Cytochrome P450 2A6) | IC50 (Caspase-1) | IC50 [3] | Ki [3] | IC50 (D(3) dopamine receptor)

CCCN(CCC)C(=O)C(CCC(=O)O)NC(=O)c1ccccc1 (stereo not given) [PROGLUMIDE]
Not Active: IC50 [1] | Ki [1] | IC50 (Cannabinoid receptor 1) | IC50 [2] | IC50 (Cytochrome P450 2A6) | Ki (Cytochrome P450 2A6) | IC50 (Caspase-1) | IC50 [3] | Ki [3] | IC50 (D(3) dopamine receptor)

NC(=O)c1cnccn1 [PYRAZINAMIDE]
Not Active: IC50 [1] | Ki [1] | IC50 (Cannabinoid receptor 1) | IC50 [2] | IC50 (Cytochrome P450 2A6) | Ki (Cytochrome P450 2A6) | IC50 (Caspase-1) | IC50 [3] | Ki [3] | IC50 (D(3) dopamine receptor)

OC(CCN1CCCCC1)(c1ccccc1)C1CCCCC1 (stereo not given) [TRIHEXYPHENIDYL]
Not Active: IC50 [1] | Ki [1] | IC50 (Cannabinoid receptor 1) | IC50 [2] | IC50 (Cytochrome P450 2A6) | Ki (Cytochrome P450 2A6) | IC50 (Caspase-1) | IC50 [3] | Ki [3] | IC50 (D(3) dopamine receptor)

Cc1cc2cc3c(C)cc(=O)oc3c(C)c2o1 [TRIOXSALEN]
Not Active: IC50 [1] | Ki [1] | IC50 (Cannabinoid receptor 1) | IC50 [2] | IC50 (Cytochrome P450 2A6) | Ki (Cytochrome P450 2A6) | IC50 (Caspase-1) | IC50 [3] | Ki [3] | IC50 (D(3) dopamine receptor)

CCCC(CCC)C(=O)O [VALPROIC ACID]
Not Active: IC50 [1] | Ki [1] | IC50 (Cannabinoid receptor 1) | IC50 [2] | IC50 (Cytochrome P450 2A6) | Ki (Cytochrome P450 2A6) | IC50 (Caspase-1) | IC50 [3] | Ki [3] | IC50 (D(3) dopamine receptor)

CCC1=C[C@@H]2CN(C1)Cc1c([nH]c3ccccc13)[C@@](C(=O)OC)(c1cc3c(cc1OC)N(C)[C@H]1[C@@](O)(C(=O)OC)[C@H](OC(C)=O)[C@]4(CC)C=CCN5CC[C@]31[C@@H]54)C2 [VINORELBINE]
Not Active: IC50 [1] | Ki [1] | IC50 (Cannabinoid receptor 1) | IC50 [2] | IC50 (Cytochrome P450 2A6) | Ki (Cytochrome P450 2A6) | IC50 (Caspase-1) | IC50 [3] | Ki [3] | IC50 (D(3) dopamine receptor)

From ChEMBL document CHEMBL1909046, “DrugMatrix in vitro pharmacology data”
